According to ChEMBL document CHEMBL1146025, “Design, microwave-assisted synthesis, and spasmolytic activity of 2-(alkyloxyaryl)-1H-benzimidazole derivatives as constrained stilbene bioisosteres” (Bioorg Med Chem Lett, 2006):

Experiments:
Rattus norvegicus [1] = species on record: Rattus norvegicus; assay: Spasmolytic activity in Wistar rat ileum; type: functional
Rattus norvegicus [2] = species on record: Rattus norvegicus; assay: Potency index, spasmolytic activity in Wistar rat ileum relative to gigantol; type: functional

CCOc1ccccc1-c1nc2ccccc2[nH]1
Emax (Rattus norvegicus [1]): 50%
IC50 (Rattus norvegicus [1]): 1.94 µM
Ratio IC50 (Rattus norvegicus [2]): 3

Cc1ccc(COc2ccccc2-c2nc3ccccc3[nH]2)cc1
Emax (Rattus norvegicus [1]): 47.7%
IC50 (Rattus norvegicus [1]): 15 µM
Ratio IC50 (Rattus norvegicus [2]): 0.38

COc1ccccc1-c1nc2ccccc2[nH]1
Emax (Rattus norvegicus [1]): 52.8%
IC50 (Rattus norvegicus [1]): 7.7 µM
Ratio IC50 (Rattus norvegicus [2]): 0.75

Oc1ccccc1-c1nc2ccccc2[nH]1
Emax (Rattus norvegicus [1]): 42.4%
IC50 (Rattus norvegicus [1]): 5.15 µM
Ratio IC50 (Rattus norvegicus [2]): 1.13

COc1ccc(-c2nc3ccccc3[nH]2)c(OC)c1OC
Emax (Rattus norvegicus [1]): 65%
IC50 (Rattus norvegicus [1]): 1.8 µM
Ratio IC50 (Rattus norvegicus [2]): 3.23

Clc1ccc(COc2ccccc2-c2nc3ccccc3[nH]2)cc1
Emax (Rattus norvegicus [1]): 38.2%
IC50 (Rattus norvegicus [1]): 59 µM
Ratio IC50 (Rattus norvegicus [2]): 0.09

c1ccc2[nH]c(-c3ccc4c(c3)OCO4)nc2c1
Emax (Rattus norvegicus [1]): 59%
IC50 (Rattus norvegicus [1]): 3.4 µM
Ratio IC50 (Rattus norvegicus [2]): 1.71

O=[N+]([O-])c1ccccc1-c1nc2ccccc2[nH]1
Emax (Rattus norvegicus [1]): 11.1%
IC50 (Rattus norvegicus [1]): 78.6 µM
Ratio IC50 (Rattus norvegicus [2]): 0.07

COc1ccc(Cc2nccc3cc(OC)c(OC)cc23)cc1OC [PAPAVERINE]
Emax (Rattus norvegicus [1]): 96.7%
Ratio IC50 (Rattus norvegicus [2]): 3.76

COc1cc(-c2nc3ccccc3[nH]2)ccc1O
Emax (Rattus norvegicus [1]): 70%
IC50 (Rattus norvegicus [1]): 1.19 µM
Ratio IC50 (Rattus norvegicus [2]): 4.9

CCCOc1ccccc1-c1nc2ccccc2[nH]1
Emax (Rattus norvegicus [1]): 80%
IC50 (Rattus norvegicus [1]): 1.9 µM
Ratio IC50 (Rattus norvegicus [2]): 3.06

CN(C)c1ccc(-c2nc3ccccc3[nH]2)cc1
Emax (Rattus norvegicus [1]): 34.9%
IC50 (Rattus norvegicus [1]): 30 µM
Ratio IC50 (Rattus norvegicus [2]): 0.19

Oc1ccc(-c2nc3ccccc3[nH]2)cc1
Emax (Rattus norvegicus [1]): 61.2%
IC50 (Rattus norvegicus [1]): 5.25 µM
Ratio IC50 (Rattus norvegicus [2]): 1.11

COc1ccc(-c2nc3ccccc3[nH]2)cc1OC
Emax (Rattus norvegicus [1]): 55%
IC50 (Rattus norvegicus [1]): 5.6 µM
Ratio IC50 (Rattus norvegicus [2]): 1.04

CCOc1ccccc1-c1nc2ccccc2n1CC
Emax (Rattus norvegicus [1]): 60%
IC50 (Rattus norvegicus [1]): 1.72 µM
Ratio IC50 (Rattus norvegicus [2]): 3.39

COc1cc(OC)c(-c2nc3ccccc3[nH]2)cc1OC
Emax (Rattus norvegicus [1]): 90%
IC50 (Rattus norvegicus [1]): 4 µM
Ratio IC50 (Rattus norvegicus [2]): 1.45

c1ccc2[nH]c(-c3ccncc3)nc2c1
Emax (Rattus norvegicus [1]): 50%
IC50 (Rattus norvegicus [1]): 190 µM
Ratio IC50 (Rattus norvegicus [2]): 0.03

c1ccc(COc2ccccc2-c2nc3ccccc3[nH]2)cc1
Emax (Rattus norvegicus [1]): 51.4%
IC50 (Rattus norvegicus [1]): 28.2 µM
Ratio IC50 (Rattus norvegicus [2]): 0.21

COc1ccc(-c2nc3ccccc3[nH]2)cc1
Emax (Rattus norvegicus [1]): 54.9%
IC50 (Rattus norvegicus [1]): 10.6 µM
Ratio IC50 (Rattus norvegicus [2]): 0.55
